Results reported in patent publication EP4643860A1, “USE OF ECTOIN OR DERIVATIVE THEREOF IN PREVENTING AND/OR AMELIORATING CELL DAMAGE CAUSED BY IRRITANT, AND METHOD” (Bloomage Biotechnology Corporation Limited, priority 2022, dated 2024).

Key:
[1] = Cell activity (MTT) after treatment with acetaldehyde alone; format: cell-based; conditions: human, ca9-22 cells, 1 day, T/NT
From the text: The absorbance of each well at 550nm was detected by a microplate reader. […] NT was taken as 100%, and the ratio of T/NT of the sample well was taken as the cell activity, the results of which are shown in Table 3. On the basis of meeting the requirements of significant difference, the greater the cell activity %, the better the effect of inhibiting cell damage caused by acetaldehyde. Table 3 Cell activity results

[2] = test system: CA9-22 cells; experiment: Cell activity (MTT) of acetaldehyde-treated cells with ectoine; format: cell-based
Description: Experimental sample solution: ectoine powder and 17.7 M acetaldehyde were diluted with DMEM culture medium respectively, and then the two were mixed in different ratios to prepare experimental sample solutions with different final concentrations.
The absorbance of each well at 550nm was detected by a microplate reader. […] NT was taken as 100%, and the ratio of T/NT of the sample well was taken as the cell activity. The larger the cell activity %, the better the effect of inhibiting cell damage caused by acetaldehyde. Table 4 Cell activity results

[3] = test system: HGF-1 cells; experiment: TNF-α generation under CSE induction (ELISA); format: cell-based; conditions: 24 h pre-incubation, 5% CSE 24 h, vs control group (FIG. 2)
Description: Ectoine (purchased from Bloomage Biotechnology) was weighed separately and dissolved in HGF-1 cell complete culture medium (containing 10% FBS, 1% penicillin-streptomycin), to prepare 100 µg/mL and 500 µg/mL ectoine solutions, respectively.
(§1) Preparation of Cigarette Smoke Extract (CSE): The gas collection bottle was sterilized and the HGF-1 cell culture medium was filled into the gas collection bottle. A certain brand of cigarette was fixed on the long tube end of the gas collection bottle, and the short tube end was connected to a vacuum pump. The vacuum pump was turned on and the cigarette was lighted, so that the cigarette smoke entered the culture medium from the long tube end. In this way, cigarette smoke extract was prepared.
Test method: HGF-1 cells were seeded into a 96-well plate at a density of 30,000 cells/well and cultured at 37°C under 5% CO2 for later use. […] The secretion of TNF-α was detected using an ELISA detection kit. At the same time as the ELISA detection, cell lysate was added to the 96-well plate and centrifugation was performed, and the supernatant was taken for BCA protein quantification. After homogenization, the control group was used as a benchmark, and the relative content of TNF-α was expressed as a percentage. […]

[4] = test system: CA9-22 cells; experiment: Inflammatory factor IL-6 induced by Pg.LPS (ELISA); format: cell-based; conditions: vs Pg.LPS alone (FIG. 3)
Description: Experimental materials: Porphyromonas gingivalis lipopolysaccharide (Pg.LPS) (purchased from Sigma), ectoine (from Bloomage Biotechnology Corporation Limited), and DMEM culture medium.
Experimental sample solution: ectoine and Porphyromonas gingivalis lipopolysaccharide were diluted with DMEM culture medium to prepare an experimental sample solution containing a final concentration of 0.001 wt% ectoine + 1 µg/ml Pg.LPS.
CA9-22 cells were cultured in a 24-well plate. After complete attachment, the above experimental sample was added. After 24 hours, the cell culture supernatant was collected. The absorbance at […] and 570 nm was detected by enzyme-linked immunosorbent assay (ELISA), and the concentration of inflammatory factor IL-6 was calculated based on the absorbance.
(§2) According to the method in Example 2.1, an experimental sample solution containing a final concentration of 0.01wt% ectoine + 1µg/ml Pg.LPS was prepared, and the concentration of the inflammatory factor IL-6 was calculated. Other experimental processes not mentioned were the same as those in Example 2.1.
as §2, with “0.05wt% ectoine+1µg/ml” for “0.01wt% ectoine + 1µg/ml”
Statistical analysis: t-test statistical analysis was used to compare each group with group treated with Pg.LPS alone. * indicates p<0.05, which is considered to be of statistical difference. ** indicates p<0.01, which is considered to be of significant statistical difference, and *** indicates p<0.001, which is considered to be of extremely significant statistical difference.
Experimental materials: Porphyromonas gingivalis lipopolysaccharide (Pg.LPS) (purchased from Sigma), ACHA (from Bloomage Biotechnology Corporation Limited), and DMEM culture medium. […]

[5] = test system: HGF-1 cells; experiment: ROS generation under CSE induction (DCFH-DA fluorescence); format: cell-based; conditions: 24 h pre-incubation, 5% CSE 3 h, vs control group (FIG. 1)
Description: Ectoin (purchased from Bloomage Biotechnology) was weighed and dissolved in HGF-1 cell (gingival fibroblast) complete culture medium (containing 10% FBS, 1% penicillin-streptomycin), to prepare 100 µg/mL and 500 µg/mL ectoine solutions, respectively.
as §1
Test method: Preparation of a DCFH-DA solution with a final concentration of 10 µM using phenol red-free culture medium.
HGF-1 cells were seeded into a 96-well plate at a density of 30,000 cells/well and cultured at 37°C under 5% CO2 for later use. After 24 hours for cell attachment, a blank group, a control group, and an experimental group containing 100µg/mL and […] ectoine, respectively, were set up, with 100µL/well. […] The fluorescence intensity was measured at an excitation wavelength of 485nm and an emission wavelength of 538nm. […]

[6] = in vitro; conditions: human, ca9-22 cells, Cell activity
Description: (§3) Experimental sample solutions: ectoine powder was dissolved in DMEM culture medium to prepare experimental sample solutions with different final concentrations, and the concentrations were shown in Table 2.
(§4) Methods: CA9-22 cells purchased from ATCC were co-cultured with different experimental sample solutions for 1 day, then the experimental sample solution was removed and MTT was added. After 3 hours, the supernatant was carefully sucked out and dimethyl sulfoxide (DMSO) was added. The absorbance of each well at 550 nm was detected by a microplate reader. The untreated well was used as the control, the absorbance of the sample well was defined as T, and the absorbance of the untreated well was defined as NT. NT was taken as 100%, and the ratio of T/NT of the sample wells was taken as the cell activity. Table 2 Cell activity results

[7] = test system: CA9-22 cells; experiment: in vitro
Description: as §3, §4

SMILES | viability at 24 h, 100 µM ([1]; Acetaldehyde 0.0001M) | viability at 24 h, 1000 µM ([1]; Acetaldehyde 0.001M) | viability at 24 h, 5000 µM ([1]; Acetaldehyde 0.005M) | viability at 24 h, 10000 µM ([1]; Acetaldehyde 0.01M) | viability at 24 h, 20000 µM ([1]; Acetaldehyde 0.02M) | viability at 20000 µM ([2]; Homo sapiens, Ca9-22, 24 h, read-out: Cell activity) | TNF-α content after CSE irritation ([3]; 100µg/mL ectoine) | TNF-α content after CSE irritation ([3]; 500µg/mL ectoine) | concentration of IL-6 caused by Pg.LPS ([4]; 0.001wt% ectoine + 1 µg/ml Pg.LPS, 24 h (Example 2.1)) | concentration of IL-6 caused by Pg.LPS ([4]; 0.01wt% ectoine + 1µg/ml Pg.LPS, 24 h (Example 2.2)) | concentration of IL-6 caused by Pg.LPS ([4]; 0.05wt% ectoine + 1µg/ml Pg.LPS, 24 h (Example 2.3)) | ROS content after CSE oxidative irritation ([5]; 100µg/mL ectoine) | ROS content after CSE oxidative irritation ([5]; 200µg/mL ectoine) | cell activity of CA9-22 after the addition of ectoine ([2]; Acetaldehyde 0.02 M + ectoine 0.02-0.1 wt%, vs acetaldehyde-treated group) | viability at 24 h [6] | cytotoxicity [7]
CC=O [Acetaldehyde, acetaldehyde] | 96% | 93% | 93% | 89% | 70% | 70% | – | – | – | – | – | – | – | – | – | –
CC1=NC(C(=O)O)CCN1 (stereo not shown) [ectoine, 2-methyl-1,4,5,6-tetrahydropyrimidin-4-carboxylic acid] | – | – | – | – | – | – | can inhibit the increase of TNF-α content | can inhibit the increase of TNF-α content | can significantly reduce the concentration of IL-6 | can significantly reduce the concentration of IL-6 | can significantly reduce the concentration of IL-6 | can inhibit the increase of ROS content | can inhibit the increase of ROS content | increased | 112% | no cytotoxicity
